Reference: PubChem BioAssay AID1918998 (Molecular Pharmacology Branch, DTP, NCI, 2023)

Test system: 521955-158-R2-J5-PDC complex spheroid growth
Assay: Anticancer human tumor 521955-158-R2-J5-PDC patient-derived pancreatic carcinoma cell line growth inhibition [AhR]
Conditions: for IC50: curve of first compound; for viability, T/C: stronger effect = lower value
Summary of the method: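 Spheroids combined tumor cells with HUVEC endothelial cells and human MSCs as stroma. AhR antagonists were paired with standard or investigational drugs, each dosed in half-log steps down from near clinical Cmax, or from 10 microM where Cmax was unknown.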

[1] = second compound 0.1 µM, first compound 0.0316 µM
[2] = second compound 0.1 µM, first compound 0.1 µM
[3] = second compound 0.1 µM, first compound 0.316 µM
[4] = second compound 0.1 µM, first compound 1 µM
[5] = second compound 0.1 µM, first compound 3.16 µM
[6] = second compound 0.1 µM, first compound 10 µM
[7] = second compound 0.316 µM, first compound 0.0316 µM
[8] = second compound 0.316 µM, first compound 0.1 µM
[9] = second compound 0.316 µM, first compound 0.316 µM
[10] = second compound 0.316 µM, first compound 1 µM
[11] = second compound 0.316 µM, first compound 3.16 µM
[12] = second compound 0.316 µM, first compound 10 µM
[13] = second compound 1 µM, first compound 0.0316 µM
[14] = second compound 1 µM, first compound 0.1 µM
[15] = second compound 1 µM, first compound 0.316 µM
[16] = second compound 1 µM, first compound 1 µM
[17] = second compound 1 µM, first compound 3.16 µM
[18] = second compound 1 µM, first compound 10 µM
[19] = second compound 3.16 µM, first compound 0.0316 µM
[20] = second compound 3.16 µM, first compound 0.1 µM
[21] = second compound 3.16 µM, first compound 0.316 µM
[22] = second compound 3.16 µM, first compound 1 µM
[23] = second compound 3.16 µM, first compound 3.16 µM
[24] = second compound 3.16 µM, first compound 10 µM
[25] = second compound 10 µM, first compound 0.0316 µM
[26] = second compound 10 µM, first compound 0.1 µM
[27] = second compound 10 µM, first compound 0.316 µM
[28] = second compound 10 µM, first compound 1 µM
[29] = second compound 10 µM, first compound 3.16 µM
[30] = second compound 10 µM, first compound 10 µM
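Throughout, for viability, T/C: spheroids mix tumor cells with HUVEC endothelium and human MSC stroma; luminescence taken as viability surrogate after a week of drug exposure.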

Row | IC50 (second compound 0.1 µM) [µM] | IC50 (second compound 0.316 µM) [µM] | IC50 (second compound 1 µM) [µM] | IC50 (second compound 3.16 µM) [µM] | IC50 (second compound 10 µM) [µM] | Structure (SMILES) | viability, T/C [1] [%] | viability, T/C [2] [%] | viability, T/C [3] [%] | viability, T/C [4] [%] | viability, T/C [7] [%] | viability, T/C [8] [%] | viability, T/C [9] [%] | viability, T/C [10] [%] | viability, T/C [13] [%] | viability, T/C [14] [%] | viability, T/C [15] [%] | viability, T/C [16] [%] | viability, T/C [19] [%] | viability, T/C [20] [%] | viability, T/C [21] [%] | also measured
1 | > 10 | > 10 | > 10 | > 10 | > 10 | CC(C)c1c(-c2ccccc2)nc2c(C#N)c[nH]n2c1=O + Cc1cncc(-c2nc(NCCc3c[nH]c4ccccc34)c3ncn(C(C)C)c3n2)c1 | 96.9 | 112 | 114 | 101 | 101 | 137 | 98.9 | 106 | 133 | 142 | 127 | 112 | 169 | 151 | 146 | viability, T/C [5]: 98.7%; viability, T/C [6]: 94.6%; viability, T/C [11]: 95.7%; viability, T/C [12]: 94.6%; viability, T/C [17]: 106%; viability, T/C [18]: 105%; viability, T/C [22]: 134%; viability, T/C [23]: 131%; viability, T/C [24]: 136%; viability, T/C [25]: 134%; viability, T/C [26]: 147%; viability, T/C [27]: 153%; viability, T/C [28]: 143%; viability, T/C [29]: 118%; viability, T/C [30]: 124%
2 | 0.116 | 0.136 | 0.0874 | 0.132 | 0.0888 | CC1COCCN1c1cc(-c2ccnn2C)c2ccnc(-c3ccn[nH]3)c2n1 (stereo not given) + Cc1cncc(-c2nc(NCCc3c[nH]c4ccccc34)c3ncn(C(C)C)c3n2)c1 | 106 | 55.6 | 12.8 | 16.2 | 117 | 63.3 | 12.4 | 12.7 | 121 | 41.6 | 15.7 | 13.1 | 145 | 61.1 | 13.6 | viability, T/C (second compound 0.1 µM, first compound 0.00316 µM): 112%; viability, T/C (second compound 0.1 µM, first compound 0.01 µM): 109%; viability, T/C (second compound 0.316 µM, first compound 0.00316 µM): 113%; viability, T/C (second compound 0.316 µM, first compound 0.01 µM): 130%; viability, T/C (second compound 1 µM, first compound 0.00316 µM): 94.7%; viability, T/C (second compound 1 µM, first compound 0.01 µM): 123%; viability, T/C (second compound 3.16 µM, first compound 0.00316 µM): 176%; viability, T/C (second compound 3.16 µM, first compound 0.01 µM): 167%; viability, T/C [22]: 19.1%; viability, T/C (second compound 10 µM, first compound 0.00316 µM): 127%; viability, T/C (second compound 10 µM, first compound 0.01 µM): 134%; viability, T/C [25]: 105%; viability, T/C [26]: 45.2%; viability, T/C [27]: 8.85%; viability, T/C [28]: 12.9%
3 | > 10 | > 10 | > 10 | > 10 | > 10 | COc1ccc([C@@H](O)c2cc(-c3ncnc4cc(N5CCOCC5)ccc34)c(F)cc2Cl)nn1 + Cc1cncc(-c2nc(NCCc3c[nH]c4ccccc34)c3ncn(C(C)C)c3n2)c1 | 102 | 102 | 99.7 | 78.1 | 118 | 116 | 113 | 85.1 | 115 | 127 | 113 | 104 | 134 | 153 | 130 | viability, T/C [5]: 65.8%; viability, T/C [6]: 50.8%; viability, T/C [11]: 75.1%; viability, T/C [12]: 54.4%; viability, T/C [17]: 83.3%; viability, T/C [18]: 61.6%; viability, T/C [22]: 111%; viability, T/C [23]: 96.3%; viability, T/C [24]: 65.9%; viability, T/C [25]: 138%; viability, T/C [26]: 131%; viability, T/C [27]: 175%; viability, T/C [28]: 114%; viability, T/C [29]: 62.9%; viability, T/C [30]: 46.6%
